Tested on: AR patients
Experiment: Specific cases: earlier treatment reported in the patient history
Type: in vivo, human

Q: What does the source list for Omalizumab?
A: nasal symptoms after earlier treatment (patient history) (Case 4, injected, before GCV): did not ameliorate; nasal symptoms after earlier treatment (patient history) (Case 5, before GCV): without any improvement

— patent US20240277717A1, “APPLICATION OF GANCICLOVIR IN PREPAPRATION OF MEDICINE FOR TREATING ALLERGIC RHINITIS” (Union Hospital, Tongji Medical College, Huazhong University …, priority 2023, published 2024)
